In patent US20070004039A1, “Immortalized hepatocytes” (Multicell Technologies, Inc., priority 2003, published 2007):
Like-named read-outs stand apart in the source and are kept apart here.

Key:
albumin = assay: Effect of dexamethasone on albumin secretion by Fa2N-4 cells (ELISA); format: cell-based, human; details: Fa2N-4 (passage 32); dexamethasone 1.0 μM; 48 hrs
[1] = tested on: Fa2N-4 cells and primary human hepatocytes
CYP1A2 [2] = details: cited from earlier work
UGT1A = assay: Invader assay UGT1A mRNA induction in Fa2N-4 cells; format: cell-based, human; details: 48 hours
CYP1A2 [3] = tested on: CYP1A2
CYP3A4 [4] = tested on: CYP3A4
[5] = tested on: Fa2N-4 cells and primary human hepatocytes; assay: Toxicity by LDH release and resazurin reduction, Fa2N-4 cells compared with primary human hepatocytes; details: Same or Different toxicity response in the two cell types
CYP3A4 [6] = details: human
CYP3A4 [7] = details: human; remark: listed apart in the source
CYP1A2 [8] = assay: CYP1A2 activity induction in Fa2N-4 cells (phenacetin, LC/MS/MS); format: cell-based, human
CYP2B6 = details: cited from earlier work
MDR1 (P-glycoprotein) = assay: Invader assay MDR1 mRNA induction in Fa2N-4 cells; format: cell-based, human; details: 48 hours
Fa2N-4 cells = assay: α-GST release toxicity test in Fa2N-4 cells (FIG. 22); details: 72-hour exposure, up to 100 μM
[9] = activity based on 7-ethoxy-4-trifluoromethylcoumarin O-dealkylation
[10] = activity based on S-mephenytoin N-demethylation

C[C@@H]1C[C@H]2[C@@H]3CCC4=CC(=O)C=C[C@]4(C)[C@@]3(F)[C@@H](O)C[C@]2(C)[C@@]1(O)C(=O)CO [Dexamethasone]
Albumin (albumin): 100.0 µg/mL

O=C1Nc2ccc(Cl)cc2[C@@](C#CC2CC2)(C(F)(F)F)O1 [Efavirenz]
Cellular Response (Fa2N-4 cells compared with primary human hepatocytes) [1]: Same
Non-toxic Compound / Toxic Compound [1]: Efavirenz

CCCN(CCC)S(=O)(=O)c1ccc(C(=O)O)cc1 [Probenicid]
Cellular Response (Fa2N-4 cells compared with primary human hepatocytes) [1]: Same
Non-toxic Compound / Toxic Compound [1]: Probenicid

NC(=O)OCC(COC(N)=O)c1ccccc1 [Felbamate]
Cellular Response (Fa2N-4 cells compared with primary human hepatocytes) [1]: Same
Non-toxic Compound / Toxic Compound [1]: Felbamate

O=c1cc(-c2ccccc2)oc2ccc3ccccc3c12 [BNF, β-naphthoflavone]
Human hepatocytes Average induction, CYP1A2 (CYP1A2 [2]): 13 fold
Human hepatocytes Median induction, CYP1A2 (CYP1A2 [2]): 8.4 fold
Human hepatocytes induction (range), CYP1A2 (CYP1A2 [2]): (2-56) fold
Primary cells Fold-increase, CYP1A2 (CYP1A2 [2]; hepatocytes): 13 fold
UGT1A mRNA induction (UGT1A): 2 fold
Fa2N-4 cells Fold-increase, CYP1A2 (CYP1A2 [3]): 1.5 fold
expression of CYP3A4 protein (immunoblot) (CYP3A4 [4]): does not induce CYP3A4 protein expression

C=C(C)[C@H]1Cc2c(ccc3c2O[C@@H]2COc4cc(OC)c(OC)cc4[C@@H]2C3=O)O1 [Rotenone]
Cellular Response (Fa2N-4 cells compared with primary human hepatocytes) [5]: Same

NC(=O)N1c2ccccc2C=Cc2ccccc21 [Carbamazepine]
Cellular Response (Fa2N-4 cells compared with primary human hepatocytes) [1]: Same
Non-toxic Compound / Toxic Compound [1]: Carbamazepine

O=C1NC(=O)C(c2ccccc2)(c2ccccc2)N1 [Phenytoin]
Cellular Response (Fa2N-4 cells compared with primary human hepatocytes) [1]: Same
Non-toxic Compound / Toxic Compound [1]: Phenytoin

CN(Cc1cnc2nc(N)nc(N)c2n1)c1ccc(C(=O)N[C@@H](CCC(=O)O)C(=O)O)cc1 [Methotrexate]
Cellular Response (Fa2N-4 cells compared with primary human hepatocytes) [1]: Same
Non-toxic Compound / Toxic Compound [1]: Methotrexate

CCC1(c2ccccc2)C(=O)NC(=O)NC1=O [Phenobarbital]
Cellular Response (Fa2N-4 cells compared with primary human hepatocytes) [5]: Same
production of the 6-β testosterone metabolite (CYP3A4 [6]): weaker CYP3A4 inducers

Cc1c(C)c2c(c(C)c1O)CCC(C)(COc1ccc(CC3SC(=O)NC3=O)cc1)O2 (stereo not shown) [Troglitazone]
Cellular Response (Fa2N-4 cells compared with primary human hepatocytes) [1]: Different
Non-toxic Compound / Toxic Compound [1]: Toxic
sensitivity of Fa2N-4 cells relative to primary hepatocytes [1]: more sensitive than primary hepatocytes

c1ccc2c(c1)cc1ccc3cccc4ccc2c1c34 [Benzo[a]pyrene]
Cellular Response (Fa2N-4 cells compared with primary human hepatocytes) [1]: Different
Non-toxic Compound / Toxic Compound [1]: Toxic
sensitivity of Fa2N-4 cells relative to primary hepatocytes [1]: more sensitive than primary hepatocytes

Cc1c(OCC(F)(F)F)ccnc1C[S+]([O-])c1nc2ccccc2[nH]1 (stereo not shown) [Lansoprazole]
Cellular Response (Fa2N-4 cells compared with primary human hepatocytes) [1]: Same
Non-toxic Compound / Toxic Compound [1]: Lansoprazole

Clc1ccccc1C(c1ccccc1)(c1ccccc1)n1ccnc1 [clotrimazole]
CYP3A4 activity induction (FIG. 20) (CYP3A4 [7]): CYP3A4 induction is masked by its inhibitory effect

CC1=CC(=O)c2ccccc2C1=O [Menadione]
Cellular Response (Fa2N-4 cells compared with primary human hepatocytes) [1]: Different
Non-toxic Compound / Toxic Compound [1]: Toxic
sensitivity of Fa2N-4 cells relative to primary hepatocytes [1]: less sensitive

COc1ccc2[nH]c([S+]([O-])Cc3ncc(C)c(OC)c3C)nc2c1 (stereo not shown) [Omeprazole]
Cellular Response (Fa2N-4 cells compared with primary human hepatocytes) [1]: Same
Non-toxic Compound / Toxic Compound [1]: Omeprazole
induction of CYP1A2 activity (CYP1A2 [8]; Fa2N-4, 6-well plates, 100 μM omeprazole): marked induction
CYP1A2 activity induction over control (CYP1A2 [8]; Fa2N-4, 6-, 12-, 24- and 96-well format, all cases): at least 9 fold
Fa2N-4 Average induction, CYP1A2 (CYP1A2 [8]; Fa2N-4 cells): 20 fold
Fa2N-4 induction (range), CYP1A2 (CYP1A2 [8]; Fa2N-4 cells): (9.3-29) fold

CC1(COc2ccc(CC3SC(=O)NC3=O)cc2)CCCCC1 (stereo not shown) [Ciglitazone]
Cellular Response (Fa2N-4 cells compared with primary human hepatocytes) [1]: Same
Non-toxic Compound / Toxic Compound [1]: Ciglitazone

CO[C@H]1/C=C/O[C@@]2(C)Oc3c(C)c(O)c4c(O)c(c(/C=N/N5CCN(C)CC5)c(O)c4c3C2=O)NC(=O)/C(C)=C\C=C\[C@H](C)[C@H](O)[C@@H](C)[C@@H](O)[C@@H](C)[C@H](OC(C)=O)[C@@H]1C [Rifampin]
Cellular Response (Fa2N-4 cells compared with primary human hepatocytes) [1]: Same
Human hepatocytes Average induction, CYP2B6 (CYP2B6; [9]): 4.1 fold
Human hepatocytes Median induction, CYP2B6 (CYP2B6; [9]): 2.9 fold
Human hepatocytes induction (range), CYP2B6 (CYP2B6; [9]): ≤ 14 fold
Human hepatocytes Average induction, CYP2B6 (CYP2B6; [10]): 13 fold
Human hepatocytes Median induction, CYP2B6 (CYP2B6; [10]): 8.5 fold
Human hepatocytes induction (range), CYP2B6 (CYP2B6; [10]): ≤ 71 fold
MDR1 (P-glycoprotein) mRNA induction (MDR1 (P-glycoprotein)): 3 fold

CO[C@H]1C[C@H](O[C@H]2[C@H](C)[C@@H](O[C@@H]3O[C@H](C)C[C@H](N(C)C)[C@H]3OC(C)=O)[C@@H](C)C[C@@]3(CO3)C(=O)[C@H](C)[C@@H](OC(C)=O)[C@@H](C)[C@@H](C)OC(=O)[C@@H]2C)O[C@@H](C)[C@@H]1OC(C)=O [Troleandomycin]
Cellular Response (Fa2N-4 cells compared with primary human hepatocytes) [1]: Same
Non-toxic Compound / Toxic Compound [1]: Troleandomycin

Cc1ccc2cc3c(ccc4ccccc43)c3c2c1CC3 [3-Methylcholanthrene]
release of α-GST into the medium (Fa2N-4 cells): caused a loss of membrane integrity
Cellular Response (Fa2N-4 cells compared with primary human hepatocytes) [5]: Same
